# Data: patent US20240398786A1, “7-ETHYL-10-HYDROXY-CAMPTOTHECIN (SN-38) ALBUMIN CONJUGATES FOR TREATMENT OF CANCERS” (Ohio State Innovation Foundation, priority 2021, published 2024)
# pIC50: −log10 of the molar value.
# How the values were obtained:
# H23 shCtrl/shCav-1 cells = experiment: Uptake by direct fluorescence in H23 shCtrl vs shCav-1 cells; format: cell-based; conditions: 250 nM pulsed 2 h
# Protocol: (§1) Cells were pulsed either 1 hour with 0.1% FITC-HAS or 2 hours with 250 nM SN/38/SSH20 prior to fixation. When applicable, in order to remove membrane-bound albumin, two acid/salt washes were performed with 0.1M glycine and 0.1M NaCl, pH 3.02 for 2 minutes each, followed by two washes with phosphate buffer saline (PBS). Cells were then fixed with 2% paraformaldehyde for 15 minutes at room temperature and washed 1×PBS 2 times for 5 minutes each. Cells were incubated with 0.1% Triton-x-100 for 10 min on ice to permeabilize, then washed twice with 1×PBS prior to blocking with 3% bovine serum albumin in 1×PBS overnight at 4° C. In a humidified chamber, primary antibodies (1:50) in blocking buffer were added and incubated for 1 hour at 4° C., followed by three 10 minute rinses with blocking buffer. Secondary antibody (conjugated to Alexa Fluor 488, 1:1000) was added along with DAPI for 1 hour at room temperature. Cells were then rinsed, and coverslips were mounted onto slides and then sealed. Cells were then imaged with a confocal microscope with locked settings across the control and respective experimental conditions. For auto-fluorescence experiments with SN-30 and SSH20, images were taken at an emission wavelength of 543 nm. ImageJ was used to measure the fluorescence intensity of individual cells.
# MP2 cell line = experiment: Inhibitory activity of SN-38/HSA conjugates against the MP2 cell line; format: cell-based
# Protocol: AlamarBlue proliferation assay was performed according to the manufacturer's instructions (BioRad Antibodies, Oxford, UK). Briefly, cells were seeded in 96-well plates in 4 replicates at a density of 100-300 cells per well in 100 μL medium and treated as described. Seventy-two hours after plating, alamarBlue reagent was added and incubated at 37° C. for 4-8 hours, and absorbance was measured at 570 and 600 nm.
# [1] = pharmaceutical solvents; cited from earlier work
# [2] = system: MIA-PaCa-2 (MP2) shCtrl/shCav-1 cells; experiment: Uptake by direct fluorescence in MP2 shCtrl vs shCav-1 cells; format: cell-based; conditions: 250 nM pulsed 2 h
# Protocol: as §1
# [3] = system: MP2-shCtrl/shCav-1 tumors; experiment: MP2-shCtrl/shCav-1 flank xenografts in athymic nude mice; format: in vivo; conditions: SSH20 10 mg/kg or molar equivalent of irinotecan, intravenous retro-orbital
# Protocol: (§2) Briefly, 180 μL of SSH20 was added to 1620 μL of pooled human serum off the clot (Innovative Research, Novi, MI) to form a 10% SSH20 solution, which was incubated at 37° C. Aliquots were collected at preset time points, a fixed amount of internal standard (10-hydroxycamptothecin, 10-HCPT) was added to each sample aliquot and the solutions were mixed thoroughly on vortex prior to protein precipitation by acetonitrile. Protein precipitates were pulled down by 17,000×g centrifugation for 5 minutes. The dissociated SN-38 in the supernatant was analyzed by reverse-phase HPLC, using parameters described above, detected by PDA at 368 nm. SN-38/internal standard peak ratios were correlated with an SN-38 standard curve (using the same preparation method) to obtain the concentrations of released SN-38. The plot of the kinetics of SN-38 release was generated by Prism, and the half-life was calculated by one-phase exponential association. […] To obtain a tumor growth curve, perpendicular diameter measurements of each tumor were measured every 1-5 days from the first day of injection with digital calipers, and volumes were calculated using the formula (L×W×W)/2. Weight and clinical signs of toxicity were monitored several times per week.
# [4] = system: H23-shCtrl/shCav-1 tumors; experiment: H23-shCtrl/shCav-1 flank xenografts in athymic nude mice; format: in vivo; conditions: SSH20 10 mg/kg or molar equivalent of irinotecan, intravenous retro-orbital
# Protocol: as §2
SMILES,difference in SN-38 autofluorescent signal between shCtrl and shCav-1 cells (H23 shCtrl/shCav-1 cells),pIC50 (MP2 cell line),"solubility, in words [1]",difference in SN-38 autofluorescent signal between shCtrl and shCav-1 cells [2],tumor growth rate [3],tumor growth rate [4]
"CCc1c2c(nc3ccc(O)cc13)-c1cc3c(c(=O)n1C2)COC(=O)[C@]3(O)CC [SN-38, 7-ethyl-10-hydroxy-camptothecin]",no discernable difference,6.31,virtually insoluble in any pharmaceutical solvent,no discernable difference,–,–
"CCc1c2c(nc3ccc(OC(=O)N4CCC(N5CCCCC5)CC4)cc13)-c1cc3c(c(=O)n1C2)COC(=O)[C@]3(O)CC [irinotecan, Irinotecan]",–,–,–,–,not reduced,not reduced
